Experimental data as given in US11180474B2 (BRISTOL-MYERS SQUIBB COMPANY, priority 2016, dated 2021).

Columns and labels:
human TLR8 = biological target: T1, human TLR8 (Homo sapiens, UniProt Q9NR97); assay: TLR8 inhibition reporter assay (HEK-Blue cells, SEAP reporter, R848 stimulation); format: cell-based; settings: HEK-Blue cells overexpressing human TLR8, R848 15.9 μM
T1 construct: host or cells: HEK-Blue cells
T1 sequence (Q9NR97 27-1041): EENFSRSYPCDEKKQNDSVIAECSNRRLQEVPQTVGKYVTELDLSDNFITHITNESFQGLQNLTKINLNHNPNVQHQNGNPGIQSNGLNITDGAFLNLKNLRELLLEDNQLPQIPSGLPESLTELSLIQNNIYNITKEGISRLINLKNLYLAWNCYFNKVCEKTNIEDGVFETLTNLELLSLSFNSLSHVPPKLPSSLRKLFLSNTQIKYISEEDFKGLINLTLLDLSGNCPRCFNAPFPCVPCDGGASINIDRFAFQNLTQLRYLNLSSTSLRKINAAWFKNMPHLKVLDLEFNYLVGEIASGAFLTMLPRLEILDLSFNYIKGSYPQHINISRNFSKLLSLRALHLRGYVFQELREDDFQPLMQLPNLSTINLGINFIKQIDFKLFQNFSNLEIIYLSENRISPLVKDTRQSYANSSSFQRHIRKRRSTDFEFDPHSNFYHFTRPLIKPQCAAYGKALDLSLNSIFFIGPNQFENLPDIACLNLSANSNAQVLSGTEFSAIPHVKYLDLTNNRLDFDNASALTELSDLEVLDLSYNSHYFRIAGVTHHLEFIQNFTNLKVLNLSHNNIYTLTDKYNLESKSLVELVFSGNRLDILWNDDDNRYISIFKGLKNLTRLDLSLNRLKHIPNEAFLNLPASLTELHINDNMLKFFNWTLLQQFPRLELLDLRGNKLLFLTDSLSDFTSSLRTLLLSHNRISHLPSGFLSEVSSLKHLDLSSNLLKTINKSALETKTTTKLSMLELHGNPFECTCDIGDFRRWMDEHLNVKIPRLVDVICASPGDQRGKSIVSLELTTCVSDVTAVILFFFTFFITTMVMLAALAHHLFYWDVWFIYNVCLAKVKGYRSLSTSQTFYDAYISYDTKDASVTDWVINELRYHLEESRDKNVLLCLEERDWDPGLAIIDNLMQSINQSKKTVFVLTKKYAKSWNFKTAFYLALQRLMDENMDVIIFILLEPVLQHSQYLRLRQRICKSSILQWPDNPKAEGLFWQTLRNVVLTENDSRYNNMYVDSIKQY
Method in brief: (§1)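 HEK-Blue reporter cells (15,000/well TLR7, 20,000 TLR8) exposed to compound over 0.05 nM–50 μM, agonist-stimulated (R848 for TLR8, gardiquimod for TLR7), 22 h at 37 °C, 5% CO2. SEAP read with HEK-Blue Detection; % inhibition relative to agonist-plus-DMSO and known-inhibitor controls.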

human TLR7 = biological target: T2, human TLR7 (Homo sapiens, UniProt Q9NYK1); assay: TLR7 inhibition reporter assay (HEK-Blue cells, SEAP reporter, gardiquimod stimulation); format: cell-based; settings: HEK-Blue cells overexpressing human TLR7, gardiquimod 7.5 μM
T2 construct: host or cells: HEK-Blue cells
T2 sequence (Q9NYK1 27-1049): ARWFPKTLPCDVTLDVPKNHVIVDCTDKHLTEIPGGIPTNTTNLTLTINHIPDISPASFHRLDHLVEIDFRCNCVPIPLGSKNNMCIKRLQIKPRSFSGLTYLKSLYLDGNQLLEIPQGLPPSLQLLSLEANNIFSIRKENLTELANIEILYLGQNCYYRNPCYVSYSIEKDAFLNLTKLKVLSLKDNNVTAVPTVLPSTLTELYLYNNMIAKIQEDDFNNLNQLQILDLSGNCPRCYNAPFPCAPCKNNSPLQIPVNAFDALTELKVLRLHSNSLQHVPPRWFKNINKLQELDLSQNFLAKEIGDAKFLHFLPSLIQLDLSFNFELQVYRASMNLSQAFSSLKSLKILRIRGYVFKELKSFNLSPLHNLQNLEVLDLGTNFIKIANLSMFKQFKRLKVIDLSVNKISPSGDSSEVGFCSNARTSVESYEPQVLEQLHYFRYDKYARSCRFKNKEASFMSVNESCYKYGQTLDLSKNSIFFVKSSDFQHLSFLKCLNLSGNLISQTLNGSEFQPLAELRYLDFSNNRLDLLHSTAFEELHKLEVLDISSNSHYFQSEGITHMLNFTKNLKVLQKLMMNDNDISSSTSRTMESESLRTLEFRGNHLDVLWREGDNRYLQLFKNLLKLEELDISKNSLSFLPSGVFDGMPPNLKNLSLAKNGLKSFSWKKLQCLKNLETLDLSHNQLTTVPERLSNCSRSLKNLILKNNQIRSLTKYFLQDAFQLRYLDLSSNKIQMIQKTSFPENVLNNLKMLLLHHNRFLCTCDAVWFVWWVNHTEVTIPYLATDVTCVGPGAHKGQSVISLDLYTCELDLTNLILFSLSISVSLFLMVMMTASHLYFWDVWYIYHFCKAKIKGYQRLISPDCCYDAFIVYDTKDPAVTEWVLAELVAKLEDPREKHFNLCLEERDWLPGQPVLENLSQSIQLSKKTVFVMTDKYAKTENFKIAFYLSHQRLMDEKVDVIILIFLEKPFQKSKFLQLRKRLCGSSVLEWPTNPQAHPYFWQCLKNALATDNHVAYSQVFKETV
Method in brief: as §1

| IC50 (human TLR8) [nM] | IC50 (human TLR7) [nM] | SMILES |
| --- | --- | --- |
| 24 | 29 | COc1ccc(-c2[nH]c3ccc(C4CCN(C(=O)CN(C)C(C)C)CC4)cc3c2C(C)C)cc1OC [Example 227, 1-(4-(2-(3,4-dimethoxyphenyl)-3-isopropyl-1H-indol-5-yl)piperidin-1-yl)-2-(isopropyl(methyl)amino) ethan-1-one] |
| 61 | 64 | COc1ccc(-c2[nH]c3ccc(C4CCN(C(=O)CN5CCC[C@@H](C(=O)N(C)C(C)C)C5)CC4)cc3c2C(C)C)cc1OC [Example 304, (R)-1-(2-(4-(2-(3,4-dimethoxyphenyl)-3-isopropyl-1H-indol-5-yl)piperidin-1-yl)-2-oxoethyl)-N-isopropyl-N-methylpiperidine-3-carboxamide] |
| 37 | 55 | COc1ccc(-c2[nH]c3ccc(C4CCN(C(=O)CN5CCC[C@H](C(=O)NC(C)C)C5)CC4)cc3c2C(C)C)cc1OC [Example 285, (S)-1-(2-(4-(2-(3,4-dimethoxyphenyl)-3-isopropyl-1H-indol-5-yl)piperidin-1-yl)-2-oxoethyl)-N-isopropylpiperidine-3-carboxamide] |
| 60 | 148 | COc1ccc(-c2[nH]c3ccc(C4CCN(C(=O)CN5CCC[C@@H](C(=O)N6C(C)CCC6C)C5)CC4)cc3c2C(C)C)cc1OC (stereo partly drawn) [Example 311, 1-(4-(2-(3,4-dimethoxyphenyl)-3-isopropyl-1H-indol-5-yl)piperidin-1-yl)-2-((3R)-3-(2,5-dimethylpyrrolidine-1-carbonyl)piperidin-1-yl)ethan-1-one] |
| 41 | 37 | COc1ccc(-c2[nH]c3ccc(C4CCN(C(=O)CN5CCC[C@@H](C(=O)NCC#N)C5)CC4)cc3c2C(C)C)cc1OC [Example 308, (R)—N-(cyanomethyl)-1-(2-(4-(2-(3,4-dimethoxyphenyl)-3-isopropyl-1H-indol-5-yl)piperidin-1-yl)-2-oxoethyl)piperidine-3-carboxamide] |
| 22 | 15 | COc1ccc(-c2[nH]c3ccc(C4CCN(C(=O)CNCCC(C)O)CC4)cc3c2C(C)C)cc1OC (centres unmarked) [Example 237, 1-(4-(2-(3,4-dimethoxyphenyl)-3-isopropyl-1H-indol-5-yl)piperidin-1-yl)-2-((3-hydroxybutyl)amino)ethan-1-one] |
| 59 | 31 | COc1ccc(-c2[nH]c3ccc(C4CCN(C(=O)CN5CCC[C@@H](C(=O)NCC(N)=O)C5)CC4)cc3c2C(C)C)cc1OC [Example 309, (R)—N-(2-amino-2-oxoethyl)-1-(2-(4-(2-(3,4-dimethoxyphenyl)-3-isopropyl-1H-indol-5-yl)piperidin-1-yl)-2-oxoethyl)piperidine-3-carboxamide] |
